The text below walks through data of patent US20230147795A1, “COMPOSITION AND METHODS FOR PREVENTING RADIATION INJURY AND PROMOTING TISSUE REGENERATION” (FIRSTSTRING RESEARCH, INC., priority 2017, published 2023).

Residues, ends and D or L forms follow the SMILES beside them. *: point of attachment. Biotin = O=C1N[C@H]2[C@H](CS[C@H]2CCCCC(=O)*)N1; Ahx = NCCCCCC(=O)O

In data set [1] the test system is C57BL/6 mice, partial body irradiation. The data set is described as follows: GI-targeted murine partial body irradiation model, survival. In kind it is in vivo, mouse. The following applies: 10 mg/kg intraperitoneally daily from 24 hrs post exposure up to 21 days, preliminary. The source says: In this study, C557BL/6 mice (n=40; 20 females and 20 males) were exposed to partial body irradiation by one dose exposure of […] at 50cGy/min using a 60 Co gamma source. A Farmer ionization chamber was used to provide real-time quantification of the radiation dose. Animals were irradiated in a custom designed restrainer where their left pelvic limb was extended and maintained in position to permit shielding with a cerrobend structure. This method of shielding 5% of bone marrow serves to rescue mice from hematopoietic syndromel. Initiating 24 hrs post exposure, animals were treated daily with 0.9% sodium chloride (vehicle) or 10 mg/kg ACTT 1 (ACT1 polypeptide) delivered intraperitoneally for up to 21 days. Half of the animals (subtracting those that died on days 1-7) were euthanized on day 8 to allow for histological examination of GI organs (histology results pending).

Data set [2] is described as follows: Stability study of ACT peptide in drug product gel. Particulars: for ACT peptide remaining, % of the label claim (initial concentration): drug product with 1.25% hydroxyethylcellulose. It is filed as physicochemical. As to the method: Derived through in vitro and in vivo studies, these stabilizers and excipients are incorporated into the drug product since they are non-irritating, non-staining, and non-immunogenic. […] The ACT peptide within the drug product containing 1.25% hydroxyethylcellulose only dropped to 98% of the label claim (i.e., initial concentration) when stored at 5° C. for three months and to 84% of the label claim when stored at 25° C. for the same duration. In one aspect of the invention, edetate disodium (EDTA) and Mannitol are incorporated within the drug product to provide stability to the ACT1 peptide. In some embodiments of the invention, the Mannitol is present in the formulation at 0.01% (w/w) to 1.6% (w/w), 0.01% (w/w) to 1.5% (w/w), 0.01% (w/w) to 1.4% (w/w), 0.01% (w/w) to 1.3% (w/w), 0.01% (w/w) to 1.2% (w/w), 0.01% (w/w) to 1.1% (w/w), 0.01% (w/w) to 1.0% (w/w), 0.01% (w/w) to 0.9% (w/w), 0.01% (w/w) to 0.8% (w/w), 0.01% (w/w) to 0.7% (w/w), 0.01% (w/w) to 0.6% (w/w), 0.01% (w/w) to 0.5% (w/w), 0.01% (w/w) to 0.4% (w/w), 0.01% (w/w) to 0.3% (w/w), 0.01% (w/w) to 0.2% (w/w), 0.01% (w/w) to 0.1% (w/w), or 0.01% (w/w) to 0.0.05% (w/w). In specific embodiments, the Mannitol is present in the formulation at about 0.05% (w/w).

With RPRPDDLEI [ACT1 polypeptide], the figures for the “Survival / early mortality (Kaplan Maier analysis) compared to saline” value in data set [1] and in data set [1] (listed as ACTI polypeptide) were “has an early effect on animal mortality” and “increased survival”, respectively.
For the molecule `CC[C@H](C)[C@H](NC(=O)[C@H](CCC(=O)O)NC(=O)[C@H](CC(C)C)NC(=O)[C@H](CC(=O)O)NC(=O)[C@H](CC(=O)O)NC(=O)[C@@H]1CCCN1C(=O)[C@H](CCCNC(=N)N)NC(=O)[C@@H]1CCCN1C(=O)[C@H](CCCNC(=N)N)NC(=O)[C@H](CCCCN)NC(=O)[C@H](CCCCN)NC(=O)[C@H](Cc1c[nH]c2ccccc12)NC(=O)[C@@H]1CCCN1C(=O)[C@H](CCCCN)NC(=O)[C@H](CCCNC(=N)N)NC(=O)[C@H](CCCNC(=N)N)NC(=O)[C@H](CC(N)=O)NC(=O)[C@@H]1CCCN1C(=O)[C@H](Cc1ccccc1)NC(=O)[C@H](Cc1c[nH]c2ccccc12)NC(=O)[C@@H](NC(=O)[C@H](CCCCN)NC(=O)[C@@H]1CCCN1C(=O)[C@H](CCC(N)=O)NC(=O)[C@H](CCCNC(=N)N)NC(=O)CCCCCNC(=O)CCCC[C@@H]1SC[C@@H]2NC(=O)N[C@@H]21)[C@@H](C)CC)C(=O)O` [Peptide 328967] ({Biotin-Ahx}-RQPKIWFPNRRKPWKKRPRPDDLEI-OH), the figures for the “ACT peptide remaining, % of the label claim (initial concentration)” value in data set [2] (stored at 5° C. for three months) and in data set [2] (stored at 25° C. for three months) were 98% and 84%, respectively. Besides, the “Stability in Hydroxyethylcellulose, 250 HHX (1.25%) compared to Pluronic gels” value in data set [2] (gelling agent comparison) is reported as “more stable”.
